Results from patent publication US20050208496A1, “Methods of testing for bronchial asthma or chronic obstructive pulmonary disease” (Genox Research, Inc., priority 2002, published 2005).

System: mouse counterpart genes
Test: Mouse GeneChip (MG-U74A to MG-U74C) analysis of lung and trachea of the OVA antigen-exposed bronchial hypersensitivity model, S-Sal group versus S-OVA group
Format: in vivo
Conditions: S-Sal vs S-OVA group

## ovalbumin [OVA antigen, ovalbumin antigen used for sensitization and inhalation to induce bronchial hypersensitivity in mice]
1st, P/A: A
  Fold Change, myxovirus (influenza virus) resistance 1 (mouse Probe ID 98417_at): 1.1
  Fold Change, myxovirus (influenza virus) resistance 2 (mouse Probe ID 102699_at): 1.2
2nd, P/A: A
  Fold Change, myxovirus (influenza virus) resistance 1 (mouse Probe ID 98417_at): 2.2
2nd, P/A: P
  Fold Change, myxovirus (influenza virus) resistance 2 (mouse Probe ID 102699_at): 0.909
3rd, P/A: A
  Fold Change, myxovirus (influenza virus) resistance 1 (mouse Probe ID 98417_at): 3
  Fold Change, myxovirus (influenza virus) resistance 2 (mouse Probe ID 102699_at): 1.3
